Reference: PMC10254843, “Discovery of New 2-Phenylamino-3-acyl-1,4-naphthoquinones as Inhibitors of Cancer Cells Proliferation: Searching for Intra-Cellular Targets Playing a Role in Cancer Cells Survival” (Molecules, 2023)

Tests used:
[1] = tested on: mTOR; assay: RT-qPCR mRNA level of mTOR in DU-145 cells; format: cell-based, human; details: DU145 cells, 24 h; compound 4 at 1 µM, compound 11 at 6 µM; normalized to B2M, 2^−∆∆Ct vs vehicle (1.00); mean ± SEM; * p < 0.05 vs vehicle
Description: (§1) The […] cells were cultured as previously mentioned. […] Afterwards, they were washed with phosphate-buffered saline. The cellular lysate was prepared with E.Z.N.A.®RNA-Lock Reagent (Omega Bio-tek, Norcross, GA, USA) to preserve and immediately stabilize the total RNA for the subsequent gene expression assays. The total RNA isolated from the cells using the E.Z.N.A.®HP Total RNA Isolation Kit (Omega Bio-tek) was reverse-transcribed to cDNA using the AffinityScript QPCR cDNA Synthesis Kit (Agilent Technologies, Santa Clara, CA, USA) and 1000 ng of the RNA sample.
(§2) The cDNA synthesized was employed for qPCR using Brilliant III Ultra-Fast SYBR®Green QPCR Master Mix (Agilent Technologies) in an Mx3000P qPCR System (Agilent Technologies), employing a 96-well plate with 20 μL of PCR reaction per well and 10 pmol each of forward and reverse gene-specific primers. Nine genes were analyzed: B2M, Bcl2, CDC25A, CCN2, GSR, HDAC4, mTOR, TNF, TP53 and their quantitative real-time (qPCR) primer sequences are reported in Table S1 (supplementary material). The relative gene expressions were determined using Beta-2-microglobulin (B2M) as housekeeping, and the delta-delta Ct method (2^−∆∆Ct method) with regard to the vehicle-treated group (i.e., the reference group). Five biological replicates were used from each group (treated and reference group). […]

[2] = tested on: DU-145 (prostate cancer cells); assay: MTT cell survival assay, DU-145 prostate cancer cells; format: cell-based; details: Homo sapiens, MTT test, cells incubated at 37 °C for 48 h (Table 1 footnote), mean ± SEM, n = 3
Description: (§3) Human cancer cell lines from bladder (T24), prostate (DU–145), breast (MCF–7) and non-tumor HEK-293 cells were obtained from the American Type Culture Collection (ATCC, Manassas, VA, USA). The cultures were maintained at a density of 1–2 × 10^5 cells/mL and the medium was changed at 48- and 72-h intervals. They were cultured in high-glucose Dulbecco’s modified Eagle medium (Gibco, Grand Island, NY, USA) supplemented with 10% fetal calf serum, penicillin (100 U/mL) and streptomycin (100 μg/mL). All cultures were kept at 37 °C in 95% air/5% CO2 at 100% humidity. Phosphate-buffered saline (PBS) was purchased from Gibco. Cells were incubated at the indicated times at 37 °C with or without compounds 1–14 at various concentrations.
(§4) The cytotoxicity of the compounds 1–14 was assessed by following the reduction of MTT (3-(4,5-Dimethylthiazol-2-yl)-2,5-diphenyltetrazolium bromide) to formazan blue. […] Doxorubicin was used as a standard chemotherapeutic agent (positive control). Cells were washed twice with warm PBS and further incubated with MTT (0.5 mg/mL) for 2 h at 37 °C. Blue formazan crystals were solubilized by adding 100 µL DMSO/well, and the optical density of colored solutions was subsequently read at 550 nm in a microplate reader Tecan infinite M200 Pro (Männedorf, Switzerland). The compounds 1–14 were dissolved in DMSO (stock solution at 100 mM) and further diluted to be evaluated at the following concentrations: 0 μM, 1 μM, 10 μM, 20 μM, 40 μM, 60 μM, 80 μM and 100 μM. Results are expressed as % of MTT reduction compared to untreated control conditions. The IC50 values were calculated using the GraphPad Prism 8.0.2 software (San Diego, CA, USA).

[3] = tested on: Bcl-2; assay: RT-qPCR mRNA level of Bcl-2 in DU-145 cells; format: cell-based, human; details: DU145 cells, 24 h; compound 4 at 1 µM, compound 11 at 6 µM; normalized to B2M, 2^−∆∆Ct vs vehicle (1.00); mean ± SEM
Description: as §1, §2

[4] = tested on: TP53; assay: RT-qPCR mRNA level of TP53 in DU-145 cells; format: cell-based, human; details: DU145 cells, 24 h; compound 4 at 1 µM, compound 11 at 6 µM; normalized to B2M, 2^−∆∆Ct vs vehicle (1.00); mean ± SEM
Description: as §1, §2

[5] = tested on: GSR; assay: RT-qPCR mRNA level of GSR in DU-145 cells; format: cell-based, human; details: DU145 cells, 24 h; compound 4 at 1 µM, compound 11 at 6 µM; normalized to B2M, 2^−∆∆Ct vs vehicle (1.00); mean ± SEM
Description: as §1, §2

[6] = tested on: MCF-7 (mammary cancer cells); assay: MTT cell survival assay, MCF-7 mammary cancer cells; format: cell-based; details: Homo sapiens, MCF7; MTT test; cells incubated at 37 °C for 48 h (Table 1 footnote); mean ± SEM, n = 3
Description: as §3, §4

[7] = tested on: TNF; assay: RT-qPCR mRNA level of TNF in DU-145 cells; format: cell-based, human; details: DU145 cells, 24 h; compound 4 at 1 µM, compound 11 at 6 µM; normalized to B2M, 2^−∆∆Ct vs vehicle (1.00); mean ± SEM
[8] = Half-wave potentials by cyclic voltammetry; format: physicochemical
Description: Calculation of lipophilicity (ClogP) and molar refractivity (CMR) was assessed by using the ChemBioDraw Ultra 11.0 software and the obtained values are shown in Table 3. Redox potentials of 2-phenylamino-3-acyl-1,4-naphtoquinones 1–14 were measured by cyclic voltammetry at room temperature in acetonitrile as solvent using a platinum electrode and 0.1M tetraethylammonium tetrafluoroborate as the supporting electrolyte.

[9] = tested on: T24 (Urinary bladder cancer cells); assay: MTT cell survival assay, T24 urinary bladder cancer cells; format: cell-based; details: Homo sapiens; MTT test; cells incubated at 37 °C for 48 h (Table 1 footnote); mean ± SEM, n = 3
Description: as §3, §4

[10] = tested on: CDC25A; assay: RT-qPCR mRNA level of CDC25A in DU-145 cells; format: cell-based, human; details: DU145 cells, 24 h; compound 4 at 1 µM, compound 11 at 6 µM; normalized to B2M, 2^−∆∆Ct vs vehicle (1.00); mean ± SEM
Description: as §1, §2

[11] = tested on: non-tumorigenic HEK-293 (embryonic kidney cells); assay: MTT cell survival assay, non-tumorigenic HEK-293 cells; format: cell-based; details: Homo sapiens, HEK293; MTT test; cells incubated at 37 °C for 48 h (Table 1 footnote); mean ± SEM, n = 3
Description: as §3, §4

[12] = tested on: HDAC4; assay: RT-qPCR mRNA level of HDAC4 in DU-145 cells; format: cell-based, human; details: DU145 cells, 24 h; compound 4 at 1 µM, compound 11 at 6 µM; normalized to B2M, 2^−∆∆Ct vs vehicle (1.00); mean ± SEM
Description: as §1, §2

[13] = tested on: CCN2; assay: RT-qPCR mRNA level of CCN2 in DU-145 cells; format: cell-based, human; details: DU145 cells, 24 h; compound 4 at 1 µM, compound 11 at 6 µM; normalized to B2M, 2^−∆∆Ct vs vehicle (1.00); mean ± SEM
Description: as §1, §2

[14] = tested on: HEK-293 cells/tumour cells; assay: Mean selective index, HEK-293 vs tumour cells; format: cell-based, human; details: MSI = IC50 values HEK-293 cells/IC50 values tumour cells
Description: The cytotoxicity of the compounds 1–14 was assessed by following the reduction of MTT (3-(4,5-Dimethylthiazol-2-yl)-2,5-diphenyltetrazolium bromide) to formazan blue. Cells were seeded into 96-well plates at a density of 10,000 cells/well for 24 h and then they were further incubated for 24 h with or without the quinones. Doxorubicin was used as a standard chemotherapeutic agent (positive control). Cells were washed twice with warm PBS and further incubated with MTT (0.5 mg/mL) for 2 h at 37 °C. Blue formazan crystals were solubilized by adding 100 µL DMSO/well, and the optical density of colored solutions was subsequently read at 550 nm in a microplate reader Tecan infinite M200 Pro (Männedorf, Switzerland). The compounds 1–14 were dissolved in DMSO (stock solution at 100 mM) and further diluted to be evaluated at the following concentrations: 0 μM, 1 μM, 10 μM, 20 μM, 40 μM, 60 μM, 80 μM and 100 μM. Results are expressed as % of MTT reduction compared to untreated control conditions. The IC50 values were calculated using the GraphPad Prism 8.0.2 software (San Diego, CA, USA).

[15] = tested on: MCF-7 human breast cancer cell line; set-up: method as in PMID 23167798; details: cytotoxicity against MCF-7; cited from earlier work

Row | Structure (SMILES) | Relative expression level (mRNA level) mTOR [1] | IC50 [2] [µM] | Relative expression level (mRNA level) Bcl-2 [3] | Relative expression level (mRNA level) TP53 [4] | Relative expression level (mRNA level) GSR [5] | IC50 [6] [µM] | Relative expression level (mRNA level) TNF [7] | −E^I½ (mV) ([8]; acetonitrile, platinum electrode, room temperature, negative of the potential) | half-wave potential ([8]; signed value) [mV] | IC50 [9] [µM] | Relative expression level (mRNA level) CDC25A [10] | IC50 [11] [µM] | Relative expression level (mRNA level) HDAC4 [12] | Relative expression level (mRNA level) CCN2 [13] | MSI (mean selective index) [14] | IC50 [15] [µM]
1 | O=C(C1=C(Nc2ccccc2)C(=O)c2ccccc2C1=O)c1ccccc1 [Compound 4, 2-(Phenylamino)-3-benzoylnaphthalene-1,4-dione] | 0.84 ± 0.06 | 0.82 ± 0.1 | 0.81 ± 0.05 | 0.94 ± 0.04 | 0.95 ± 0.05 | 5.16 ± 0.16 | 1.20 ± 0.08 | 695 | −695 | 15.8 ± 0.9 | 1.09 ± 0.10 | 45.2 ± 6.59 | 0.91 ± 0.05 | 0.95 ± 0.03 | 6.2 | 
2 | O=C(C1=C(Nc2ccccc2)C(=O)c2ccccc2C1=O)c1ccco1 [compound V] |  |  |  |  |  |  |  |  |  |  |  |  |  |  |  | 1.5
